Tests used:
Type in all cases: in vivo
[1] = test system: barnyardgrass (Echinochloa crus-galli); assay: Test A greenhouse herbicide test, pre- and postemergence
In short: (§1)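 Visual injury ratings, 0 (no effect) to 100 (complete control), versus untreated plants after roughly 10 d in a greenhouse. Compounds, formulated in a surfactant-containing non-phytotoxic solvent, were sprayed on loam–sand soil after sowing (pre) or on one- to two-leaf plants 2–10 cm tall (post).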

kochia (Kochia scoparia) = assay: as above
In short: as §1

corn (Zea mays) = assay: Test C greenhouse herbicide test, pre- and postemergence
In short: (§2)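 Visual 0–100 injury score (100 = complete control) taken against untreated controls after 13–15 d in greenhouse. Test chemicals, formulated in solvent plus surfactant, applied preemergence to seeds in loam–sand soil or postemergence to 1- to 4-leaf plants (2–18 cm).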

[2] = test system: crabgrass, large (large crabgrass, Digitaria sanguinalis); assay: as above
In short: as §2

[3] = test system: foxtail, giant (giant foxtail, Setaria faberii); assay: as above
In short: as §2

[4] = test system: johnsongrass (Sorghum halepense); assay: as above
In short: as §2

[5] = test system: lambsquarters (Chenopodium album); assay: as above
In short: as §2

[6] = test system: morningglory (Ipomoea coccinea); assay: as above
In short: as §2

[7] = test system: oilseed rape (Brassica napus); assay: as above
In short: as §2

[8] = test system: waterhemp (common waterhemp, Amaranthus rudis); assay: as above
In short: as §2

[9] = test system: wheat (winter wheat, Triticum aestivum); assay: as above
In short: as §2

[10] = Postemergence, 125 g ai/ha, visual rating after approx. 10 d, 0 to 100 scale (0 no effect, 100 complete control)
[11] = Postemergence, 500 g ai/ha, 0 to 100 scale, 0 is no effect, 100 is complete control
[12] = Preemergence, 125 g ai/ha, 0 to 100 scale where 0 is no effect and 100 is complete control
[13] = Preemergence, 500 g ai/ha, 0 to 100 scale, 0 no effect, 100 complete control
[14] = Postemergence, 31 g ai/ha, 0 to 100 scale (0 no effect, 100 complete control)
[15] = Postemergence, 125 g ai/ha, scale 0 to 100, 0 is no effect, 100 is complete control
[16] = Postemergence, 250 g ai/ha, scale 0 to 100, 0 no effect, 100 complete control, 13 to 15 d
[17] = Preemergence, 31 g ai/ha, scale 0 to 100, 0 is no effect, 100 is complete control
[18] = Preemergence, 62 g ai/ha, scale 0 to 100, 0 is no effect, 100 is complete control
[19] = Preemergence, 125 g ai/ha, scale 0 to 100, 0 is no effect, 100 is complete control
[20] = Preemergence, 250 g ai/ha, scale 0 to 100, 0 no effect, 100 complete control
[21] = postemergence, 62 g ai/ha, scale 0 to 100, 0 no effect, 100 complete control
[22] = Postemergence, 125 g ai/ha, 0 to 100 scale where 0 is no effect and 100 is complete control
[23] = Postemergence, 500 g ai/ha, visual rating after approx. 10 d, 0 to 100 scale (0 no effect, 100 complete control)
[24] = Preemergence, 500 g ai/ha, 0 to 100 scale where 0 is no effect and 100 is complete control
[25] = Postemergence, 31 g ai/ha, scale 0 to 100 (0 no effect, 100 complete control)

Structure (SMILES): Cc1nn(C)c(=O)c(-c2c(C)sc3ccc(Br)cc23)c1O [Compound 22]
- Plant response rating, Barnyardgrass [1, 10]: 30
- Barnyardgrass plant response rating [1, 11]: 50
- Barnyardgrass plant response rating [1, 12]: 10
- Plant response rating, Barnyardgrass [1, 13]: 70
- Plant response rating, Kochia (kochia (Kochia scoparia); [10]): 100
- Kochia plant response rating (kochia (Kochia scoparia); [11]): 100
- Kochia plant response rating (kochia (Kochia scoparia); [12]): 70
- Plant response rating, Kochia (kochia (Kochia scoparia); [13]): 100
- Corn plant response rating (corn (Zea mays); [14]): 0
- Plant response rating, Corn (corn (Zea mays); [15]): 5
- Plant response rating, Corn (corn (Zea mays); [16]): 5
- Plant response rating, Corn (corn (Zea mays); [17]): 0
- Plant response rating, Corn (corn (Zea mays); [18]): 0
- Plant response rating, Corn (corn (Zea mays); [19]): 0
- Corn plant response rating (corn (Zea mays); [20]): 35
- Corn plant response rating (corn (Zea mays); [21]): 5
- Crabgrass, Large plant response rating [2, 14]: 0
- Plant response rating, Crabgrass, Large [2, 15]: 5
- Plant response rating, Crabgrass, Large [2, 16]: 5
- Plant response rating, Crabgrass, Large [2, 17]: 0
- Plant response rating, Crabgrass, Large [2, 18]: 0
- Plant response rating, Crabgrass, Large [2, 19]: 0
- Crabgrass, Large plant response rating [2, 20]: 35
- Crabgrass, Large plant response rating [2, 21]: 5
- Foxtail, Giant plant response rating [3, 14]: 10
- Plant response rating, Foxtail, Giant [3, 15]: 40
- Plant response rating, Foxtail, Giant [3, 16]: 35
- Plant response rating, Foxtail, Giant [3, 17]: 5
- Plant response rating, Foxtail, Giant [3, 18]: 15
- Plant response rating, Foxtail, Giant [3, 19]: 55
- Foxtail, Giant plant response rating [3, 20]: 85
- Foxtail, Giant plant response rating [3, 21]: 15
- Johnsongrass plant response rating [4, 14]: 5
- Plant response rating, Johnsongrass [4, 15]: 5
- Plant response rating, Johnsongrass [4, 16]: 5
- Plant response rating, Johnsongrass [4, 17]: 0
- Plant response rating, Johnsongrass [4, 18]: 0
- Plant response rating, Johnsongrass [4, 19]: 0
- Johnsongrass plant response rating [4, 20]: 0
- Johnsongrass plant response rating [4, 21]: 5
- Lambsquarters plant response rating [5, 14]: 70
- Plant response rating, Lambsquarters [5, 15]: 90
- Plant response rating, Lambsquarters [5, 16]: 90
- Plant response rating, Lambsquarters [5, 17]: 25
- Plant response rating, Lambsquarters [5, 18]: 45
- Plant response rating, Lambsquarters [5, 19]: 90
- Lambsquarters plant response rating [5, 20]: 90
- Lambsquarters plant response rating [5, 21]: 85
- Morningglory plant response rating [6, 14]: 100
- Plant response rating, Morningglory [6, 15]: 100
- Plant response rating, Morningglory [6, 16]: 100
- Plant response rating, Morningglory [6, 17]: 30
- Plant response rating, Morningglory [6, 18]: 85
- Plant response rating, Morningglory [6, 19]: 100
- Morningglory plant response rating [6, 20]: 100
- Morningglory plant response rating [6, 21]: 100
- Oilseed Rape plant response rating [7, 14]: 5
- Plant response rating, Oilseed Rape [7, 15]: 90
- Plant response rating, Oilseed Rape [7, 16]: 75
- Plant response rating, Oilseed Rape [7, 17]: 0
- Plant response rating, Oilseed Rape [7, 18]: 5
- Plant response rating, Oilseed Rape [7, 19]: 5
- Oilseed Rape plant response rating [7, 20]: 80
- Oilseed Rape plant response rating [7, 21]: 15
- Waterhemp plant response rating [8, 14]: 75
- Plant response rating, Waterhemp [8, 15]: 75
- Plant response rating, Waterhemp [8, 16]: 90
- Plant response rating, Waterhemp [8, 18]: 80
- Plant response rating, Waterhemp [8, 19]: 100
- Waterhemp plant response rating [8, 20]: 100
- Waterhemp plant response rating [8, 21]: 70
- Wheat plant response rating [9, 14]: 0
- Plant response rating, Wheat [9, 15]: 5
- Plant response rating, Wheat [9, 16]: 0
- Plant response rating, Wheat [9, 18]: 0
- Plant response rating, Wheat [9, 19]: 0
- Wheat plant response rating [9, 20]: 0
- Wheat plant response rating [9, 21]: 0

Structure (SMILES): Cc1nn(C)c(=O)c(-c2c(C)sc3ccc(C(F)(F)F)cc23)c1O [Compound 121]
- Plant response rating, Barnyardgrass [1, 22]: 30
- Plant response rating, Barnyardgrass [1, 23]: 50
- Barnyardgrass plant response rating [1, 12]: 20
- Plant response rating, Barnyardgrass [1, 24]: 50
- Plant response rating, Kochia (kochia (Kochia scoparia); [22]): 70
- Plant response rating, Kochia (kochia (Kochia scoparia); [23]): 80
- Kochia plant response rating (kochia (Kochia scoparia); [12]): 0
- Plant response rating, Kochia (kochia (Kochia scoparia); [24]): 30
- Plant response rating, Corn (corn (Zea mays); [25]): 0
- Plant response rating, Corn (corn (Zea mays); [15]): 5
- Plant response rating, Corn (corn (Zea mays); [16]): 5
- Plant response rating, Corn (corn (Zea mays); [17]): 0
- Plant response rating, Corn (corn (Zea mays); [18]): 0
- Plant response rating, Corn (corn (Zea mays); [19]): 0
- Corn plant response rating (corn (Zea mays); [20]): 5
- Corn plant response rating (corn (Zea mays); [21]): 5
- Plant response rating, Crabgrass, Large [2, 25]: 10
- Plant response rating, Crabgrass, Large [2, 15]: 20
- Plant response rating, Crabgrass, Large [2, 16]: 40
- Plant response rating, Crabgrass, Large [2, 17]: 0
- Plant response rating, Crabgrass, Large [2, 18]: 10
- Plant response rating, Crabgrass, Large [2, 19]: 10
- Crabgrass, Large plant response rating [2, 20]: 35
- Crabgrass, Large plant response rating [2, 21]: 5
- Plant response rating, Foxtail, Giant [3, 25]: 20
- Plant response rating, Foxtail, Giant [3, 15]: 70
- Plant response rating, Foxtail, Giant [3, 16]: 85
- Plant response rating, Foxtail, Giant [3, 17]: 20
- Plant response rating, Foxtail, Giant [3, 18]: 55
- Plant response rating, Foxtail, Giant [3, 19]: 90
- Foxtail, Giant plant response rating [3, 20]: 95
- Plant response rating, Johnsongrass [4, 25]: 0
- Plant response rating, Johnsongrass [4, 15]: 5
- Plant response rating, Johnsongrass [4, 16]: 5
- Plant response rating, Johnsongrass [4, 17]: 0
- Plant response rating, Johnsongrass [4, 18]: 0
- Plant response rating, Johnsongrass [4, 19]: 0
- Johnsongrass plant response rating [4, 20]: 10
- Plant response rating, Lambsquarters [5, 25]: 90
- Plant response rating, Lambsquarters [5, 15]: 98
- Plant response rating, Lambsquarters [5, 16]: 100
- Plant response rating, Lambsquarters [5, 17]: 60
- Plant response rating, Lambsquarters [5, 18]: 80
- Plant response rating, Lambsquarters [5, 19]: 98
- Lambsquarters plant response rating [5, 20]: 100
- Plant response rating, Morningglory [6, 25]: 98
- Plant response rating, Morningglory [6, 15]: 100
- Plant response rating, Morningglory [6, 16]: 98
- Plant response rating, Morningglory [6, 17]: 25
- Plant response rating, Morningglory [6, 18]: 55
- Plant response rating, Morningglory [6, 19]: 85
- Morningglory plant response rating [6, 20]: 90
- Plant response rating, Oilseed Rape [7, 25]: 70
- Plant response rating, Oilseed Rape [7, 15]: 85
- Plant response rating, Oilseed Rape [7, 16]: 55
- Plant response rating, Oilseed Rape [7, 17]: 0
- Plant response rating, Oilseed Rape [7, 18]: 85
- Plant response rating, Oilseed Rape [7, 19]: 30
- Oilseed Rape plant response rating [7, 20]: 85
- Plant response rating, Waterhemp [8, 25]: 60
- Plant response rating, Waterhemp [8, 15]: 75
- Plant response rating, Waterhemp [8, 16]: 70
- Plant response rating, Waterhemp [8, 17]: 70
- Plant response rating, Waterhemp [8, 18]: 95
- Plant response rating, Waterhemp [8, 19]: 85
- Waterhemp plant response rating [8, 20]: 100
- Plant response rating, Wheat [9, 25]: 5
- Plant response rating, Wheat [9, 15]: 25
- Plant response rating, Wheat [9, 16]: 0
- Plant response rating, Wheat [9, 17]: 0
- Plant response rating, Wheat [9, 18]: 0
- Plant response rating, Wheat [9, 19]: 10
- Wheat plant response rating [9, 20]: 15

— patent publication US10597388B2, “Pyridazinone herbicides” (FMC CORPORATION, priority 2014, dated 2020)
